In the data set the target is ATP-binding cassette sub-family C member 2 (Homo sapiens, UniProt Q92887). In words: TP_TRANSPORTER: uptake in membrane vesicle from MRP2-expressing 2008 cells. The data set is classed as functional, cell membranes.
ATP-binding cassette sub-family C member 2, sequence (Q92887 whole entry): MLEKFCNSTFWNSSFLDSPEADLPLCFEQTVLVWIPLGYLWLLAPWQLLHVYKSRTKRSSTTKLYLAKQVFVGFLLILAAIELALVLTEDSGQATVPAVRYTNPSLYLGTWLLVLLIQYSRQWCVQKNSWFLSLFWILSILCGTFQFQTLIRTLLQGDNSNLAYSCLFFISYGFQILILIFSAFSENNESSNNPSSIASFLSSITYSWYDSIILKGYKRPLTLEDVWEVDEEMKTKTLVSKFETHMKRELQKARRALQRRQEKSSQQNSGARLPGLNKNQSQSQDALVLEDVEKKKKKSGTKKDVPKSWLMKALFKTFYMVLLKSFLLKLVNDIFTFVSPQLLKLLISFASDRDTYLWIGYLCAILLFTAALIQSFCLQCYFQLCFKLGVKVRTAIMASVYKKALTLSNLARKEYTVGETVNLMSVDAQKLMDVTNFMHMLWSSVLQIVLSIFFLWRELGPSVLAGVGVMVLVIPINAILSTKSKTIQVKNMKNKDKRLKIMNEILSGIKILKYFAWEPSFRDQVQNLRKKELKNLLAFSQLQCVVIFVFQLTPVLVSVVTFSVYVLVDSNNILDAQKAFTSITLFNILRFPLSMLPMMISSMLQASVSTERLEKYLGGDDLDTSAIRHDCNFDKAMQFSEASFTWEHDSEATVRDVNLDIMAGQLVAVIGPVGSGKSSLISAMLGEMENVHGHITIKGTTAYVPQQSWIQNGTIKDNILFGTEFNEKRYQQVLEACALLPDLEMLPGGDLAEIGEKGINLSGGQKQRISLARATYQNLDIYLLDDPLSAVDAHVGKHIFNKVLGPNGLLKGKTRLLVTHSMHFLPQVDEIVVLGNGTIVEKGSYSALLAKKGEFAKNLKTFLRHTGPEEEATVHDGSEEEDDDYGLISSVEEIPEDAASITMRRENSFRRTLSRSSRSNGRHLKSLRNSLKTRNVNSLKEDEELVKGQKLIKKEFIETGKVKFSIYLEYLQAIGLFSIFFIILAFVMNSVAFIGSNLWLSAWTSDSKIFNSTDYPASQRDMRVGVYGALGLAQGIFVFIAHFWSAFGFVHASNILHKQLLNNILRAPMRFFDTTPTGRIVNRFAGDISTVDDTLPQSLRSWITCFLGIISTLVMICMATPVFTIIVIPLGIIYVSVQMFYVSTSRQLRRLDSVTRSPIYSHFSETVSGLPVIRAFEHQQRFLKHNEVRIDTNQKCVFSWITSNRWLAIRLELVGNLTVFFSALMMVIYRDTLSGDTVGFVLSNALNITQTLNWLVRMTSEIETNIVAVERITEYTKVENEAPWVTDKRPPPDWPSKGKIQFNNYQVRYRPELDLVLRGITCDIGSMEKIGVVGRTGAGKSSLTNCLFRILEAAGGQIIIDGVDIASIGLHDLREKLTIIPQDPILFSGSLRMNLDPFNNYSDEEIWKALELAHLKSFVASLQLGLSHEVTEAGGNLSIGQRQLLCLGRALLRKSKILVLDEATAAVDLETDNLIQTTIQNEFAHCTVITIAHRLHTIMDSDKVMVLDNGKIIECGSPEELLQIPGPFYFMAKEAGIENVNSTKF

For the compound `CN(Cc1cnc2nc(N)nc(N)c2n1)c1ccc(C(=O)N[C@@H](CCC(=O)O)C(=O)O)cc1` [METHOTREXATE], the Activity result was “substrate [+]”.
